Measured values from US11186547B2, “High-purity quinoline derivative and method for manufacturing same” (Eisai R&D Management Co., Ltd., priority 2014, dated 2021).
Each block holds one compound with its values, some of them ahead of it.

Experiments:
[1] = solubility in organic solvents; format: physicochemical
Text: (§1) The compound (A-1) is the starting material of the step A, but its solubility in organic solvents is low.

[2] = genotoxicity, consideration of the present inventors; conditions: according to the consideration of the present inventors
Text: as §1

[3] = Workplace Safety Site, Public Notice No. 166 of Mar. 27, 2012; cited from earlier work
[4] = decomposition on heating after dissolution in a solvent; format: physicochemical; conditions: heated after dissolved in a solvent

solubility in organic solvents [1]: low
Structure (SMILES): COc1cc2nccc(Cl)c2cc1C(N)=O [compound (A-1), 4-chloro-7-methoxy-quinoline-6-carboxamide]
genotoxicity [2]: possibility that the compound (A-1) exhibits genotoxicity

Structure (SMILES): COc1cc2nccc(Oc3ccc(N)c(Cl)c3)c2cc1C(N)=O [compound (I), 4-(4-Amino-3-chlorophenoxy)-7-methoxy-quinoline-6-carboxamide]
mutagenicity [3]: strong mutagenicity was recognized

Structure (SMILES): COc1cc2nccc(Oc3ccc(NC(=O)NC4CC4)c(Cl)c3)c2cc1C(N)=O [methanesulfonate of the compound (IV), 4-[3-chloro-4-(cyclopropylaminocarbonyl)aminophenoxy]-7-methoxy-6-quinoline-carboxamide Methanesulfonate]
decomposition product formed [4]: the compound (I) is formed as a decomposition product
